Molecules are shown by their SMILES.

From ChEMBL document CHEMBL3228010, “Potential antitumor agents. 29. Quantitative structure-activity relationships for the antileukemic bisquaternary ammonium heterocycles” (J Med Chem, 1979) come the findings set out here.

Series [1] can be described thus: Displacement of ethidium from poly[d(A-T)]-poly[d(A-T)] DNA by fluorimetric method.
Series [2] can be described thus: Lipophilic-hydrophilic balance, Rm of the compound by partition chromatography. The format is physicochemical.
A short description of series [3]: Displacement of ethidium from poly[d(G-C)]-poly[d(G-C)] DNA (unknown origin) by fluorimetric method.
Series [4] deals with L1210. As to the kind of experiment: Antitumor activity against mouse L1210 cells […] in ip dosed C3H X DBA2 F1 hybrid mouse on day 0 and dosed once daily on days 1 to 5 assessed as increase in life span relative to control. The class given is functional.
Series [5] has as its system L1210. As to the kind of experiment: Antitumor activity against mouse L1210 cells […] in ip dosed C3H X DBA2 F1 hybrid mouse on day 0 and dosed at LD10 level once daily on days 1 to 5 assessed as increase in life span relative to control. The class given is functional.
In series [6] the test system is Mus musculus. As to the kind of experiment: Toxicity in ip dosed C3H X DBA2 F1 hybrid mouse […] with mouse L1210 cells on day 0 and dosed once daily on days 1 to 5 measured after 50 days. The format is organism-based. As to conditions: in vivo, 1200 h.
Series [7] is filed under the species Bos taurus. Description: Displacement of ethidium from calf thymus DNA by fluorimetric method.

Turning to `C[n+]1cccc(-c2ccc(NC(=O)/C=C/c3ccc(C(=O)Nc4ccc(-c5ccc(-c6ccc(-c7ccc[n+](C)c7)cc6)cc5)cc4)cc3)cc2)c1.Cc1ccc(S(=O)(=O)[O-])cc1.Cc1ccc(S(=O)(=O)[O-])cc1`, the C50 in series [1] was found to be 0.13 µM; in series [3], 0.46 µM; in series [7], 0.3 µM. This compound also displayed a Rm in series [2] of -0.75. The D40 in series [4] was 26.9 mg/kg. For the same compound, the “log(ILSmax)” value in series [5] came to 2.16. In addition, the LD10 in series [6] was 85 mg/kg.

For the compound `Br.C/C(=N\NC(=N)N)c1ccc(C(=O)Nc2ccc(Nc3cc[n+](C)c4cc(N)ccc34)cc2)cc1.[Br-]`, the C50 in series [1] amounted to 0.17 µM; in series [3] it was 0.6 µM; in series [7], 0.35 µM. The same compound registered a Rm in series [2] of -0.35. Further, the D40 in series [4] was found to be 30 mg/kg. In addition, the “log(ILSmax)” value in series [5] amounted to 2.28. This compound displayed an LD10 in series [6] of 165 mg/kg.

For the compound `CC[n+]1ccc(Nc2ccc(NC(=O)c3ccc(Nc4cc[n+](CC)c5ccc(N)cc45)cc3)cc2)cc1.[Br-].[Br-]`, the results for the C50 in series [1], in series [3] and in series [7] were 0.1 µM, 1.04 µM and 0.69 µM, respectively. In series [2], this compound displayed a Rm of 0.22. Moreover, the D40 in series [4] is 0.9 mg/kg. Further, the “log(ILSmax)” value in series [5] amounted to 2.25. Further, the LD10 in series [6] worked out at 10 mg/kg.

As for `C[n+]1ccc(Nc2ccc(/C=C/c3ccc(Nc4cc[n+](C)c5ccccc45)cc3)cc2)cc1.[Br-].[Br-]`, the figures for the C50 in series [1], in series [3] and in series [7] were 0.13 µM, 0.67 µM and 0.34 µM, respectively. The same compound came in with a Rm in series [2] of 0.61. Besides, the D40 in series [4] was determined as 12 mg/kg. In addition, the “log(ILSmax)” value in series [5] came to 1.89. Besides, in series [6], the LD10 is 23 mg/kg.

As to `C[n+]1ccc(Nc2ccc(C(=O)Nc3ccc(Nc4cc[n+](C)c5cc(N)ccc45)cc3)c(N)c2)cc1.Cc1ccc(S(=O)(=O)[O-])cc1.Cc1ccc(S(=O)(=O)[O-])cc1`, the C50 was found to be 0.14 µM in series [1], 0.77 µM in series [3] and 0.44 µM in series [7]. In addition, in series [2], the Rm is -0.12. In addition, the D40 in series [4] was 1.7 mg/kg. In addition, the “log(ILSmax)” value in series [5] came out at 2.38. The same compound had an LD10 in series [6] of 20 mg/kg.

As for `C[n+]1ccc(Nc2ccc(NC(=O)c3ccc(-c4ccc(Nc5cc[n+](C)cc5)cc4)cc3)cc2)cc1.[I-].[I-]`, the values for the C50 in series [1], in series [3] and in series [7] were 0.37 µM, 3.01 µM and 2.04 µM, respectively. The Rm in series [2] stood at 0.06. Besides, the D40 in series [4] came out at 0.6 mg/kg. For the same compound, the “log(ILSmax)” value in series [5] amounted to 2.28. The compound also showed an LD10 in series [6] of 2.6 mg/kg.

With `CC[n+]1cccc(NC(=O)c2ccc(NC(=O)c3ccc(C(=O)Nc4ccc5c(ccc[n+]5CC)c4)cc3)cc2)c1.Cc1ccc(S(=O)(=O)[O-])cc1.Cc1ccc(S(=O)(=O)[O-])cc1`, the C50 in series [1] was 0.62 µM; in series [3], 1.48 µM; in series [7], 0.74 µM. In series [2], this compound showed a Rm of 0.09. The D40 in series [4] stood at 2.3 mg/kg. Besides, the “log(ILSmax)” value in series [5] is reported as 2.2. This compound registered an LD10 in series [6] of 9 mg/kg.

As for `Cc1cc(Nc2ccc(NC(=O)c3ccc(C(=O)Nc4ccc(Nc5cc(C)[n+](C)c(N)n5)cc4)cc3)cc2)nc(N)[n+]1C.Cc1ccc(S(=O)(=O)[O-])cc1.Cc1ccc(S(=O)(=O)[O-])cc1`, the C50 in series [1] was determined as 0.4 µM; in series [3] it was 0.8 µM; in series [7], 0.5 µM. In addition, in series [2], the Rm is listed as -0.71. Further, in series [4], the D40 worked out at 75 mg/kg. Further, in series [5], the “log(ILSmax)” value is on record as 2.12. In addition, the LD10 in series [6] came out at 250 mg/kg.

With `Cc1ccc(S(=O)(=O)[O-])cc1.Cc1ccc(S(=O)(=O)[O-])cc1.Cc1ccc2c(c1)c(Nc1ccc(C(=O)Nc3ccc(Nc4cc[n+](C)cc4)cc3)cc1)cc[n+]2C`, the C50 was 0.17 µM in series [1], 2.28 µM in series [3] and 1.05 µM in series [7]. Also, in series [2], the Rm is reported as 0.51. In series [4], the D40 was 1 mg/kg. Also, in series [5], the “log(ILSmax)” value is 2.17. In series [6], this compound registered an LD10 of 15 mg/kg.

Take `C[n+]1cccc2ccc(NC(=O)c3ccc(NC(=O)c4ccc(C(=O)Nc5ccc6ccc[n+](C)c6c5)cc4)cc3)cc21.Cc1ccc(S(=O)(=O)[O-])cc1.Cc1ccc(S(=O)(=O)[O-])cc1`: the C50 in series [1] is 0.16 µM; in series [3], 0.25 µM; in series [7] it was 0.16 µM. In series [2], this compound yielded a Rm of -0.76. For the same compound, the D40 in series [4] came to 15 mg/kg. For the same compound, the “log(ILSmax)” value in series [5] is reported as 1.85. The compound further had an LD10 in series [6] of 34 mg/kg.

Turning to `C[n+]1c2ccccc2c(Nc2ccc(NC(=O)Nc3ccc(NC(=N)NC(=N)N)cc3)cc2)c2ccc(N)cc21.Cl.[Cl-]`, the C50 in series [1] was 0.06 µM; in series [3], 0.13 µM; in series [7], 0.09 µM. The Rm in series [2] is 0.46. Besides, in series [4], the D40 stood at 8 mg/kg. Moreover, the “log(ILSmax)” value in series [5] was found to be 2.48. Besides, the LD10 in series [6] is 200 mg/kg.

`CC[n+]1cccc(NC(=O)c2ccc(NC(=O)c3ccc(NC(=O)c4ccc(C(=O)Nc5ccc[n+](CC)c5)cc4)cc3)cc2)c1.Cc1ccc(S(=O)(=O)[O-])cc1.Cc1ccc(S(=O)(=O)[O-])cc1`: the C50 in series [1] is 0.43 µM; in series [3], 0.65 µM; in series [7], 0.5 µM. The Rm in series [2] is -0.44. The D40 in series [4] was 9.1 mg/kg. Further, in series [5], the “log(ILSmax)” value amounted to 1.9. In series [6], the LD10 is 33 mg/kg.

For `C[n+]1ccc(Nc2ccc(C(=O)Nc3ccc(Nc4cc[n+](C)c5ccc(N)cc45)cc3)cc2)cc1.Cc1ccc(S(=O)(=O)[O-])cc1.Cc1ccc(S(=O)(=O)[O-])cc1`, the C50 in series [1] worked out at 0.12 µM; in series [3] it was 1.2 µM; in series [7] it was 0.6 µM. In series [2], this compound came in with a Rm of 0.05. For the same compound, in series [4], the D40 is 1.2 mg/kg. The “log(ILSmax)” value in series [5] was 2.3. The LD10 in series [6] amounted to 11 mg/kg.

Turning to `Br.C/C(=N\NC(=N)N)c1ccc(NC(=O)Nc2ccc(Nc3cc[n+](C)c4ccc(N)cc34)cc2)cc1.[Br-]`, the C50 in series [1] turned out to be 0.25 µM; in series [3] it was 0.53 µM; in series [7], 0.42 µM. Also, the Rm in series [2] is listed as -0.15. The D40 in series [4] was determined as 18.5 mg/kg. Moreover, the “log(ILSmax)” value in series [5] is 2.2. Further, the LD10 in series [6] is 150 mg/kg.

As for `C/C(=N\NC(=N)N)c1ccc(NC(=O)Nc2ccc(Nc3c4ccccc4[n+](C)c4cc(N)ccc34)cc2)cc1.Cl.[Cl-]`, the C50 in series [1] came to 0.09 µM; in series [3] it was 0.2 µM; in series [7] it was 0.13 µM. In addition, the Rm in series [2] was determined as 0.69. Further, the D40 in series [4] was 0.3 mg/kg. For the same compound, the “log(ILSmax)” value in series [5] is recorded as 2.55. In addition, the LD10 in series [6] came out at 22 mg/kg.

For `C[n+]1cccc(NC(=O)c2ccc(NC(=O)c3ccc(C(=O)Nc4ccc(C(=O)Nc5ccc[n+](C)c5)cc4)c(Cl)c3)cc2)c1.Cc1ccc(S(=O)(=O)[O-])cc1.Cc1ccc(S(=O)(=O)[O-])cc1`, the results for the C50 in series [1], in series [3] and in series [7] were 0.95 µM, 2 µM and 1 µM, respectively. Moreover, the Rm in series [2] is 0.05. Further, the D40 in series [4] came to 5.6 mg/kg. Also, in series [5], the “log(ILSmax)” value is 2.11. This compound returned an LD10 in series [6] of 30 mg/kg.
